What was measured:
yeast α-glucosidase = settings: against yeast α-glucosidase; cited from earlier work
Mtb GlgE = target: T1, Mtb GlgE (Mycobacterium tuberculosis, UniProt P9WQ17); assay: GlgE-coupled enzyme assay utilizing PNP; format: biochemical
T1 sequence (P9WQ17 1-701): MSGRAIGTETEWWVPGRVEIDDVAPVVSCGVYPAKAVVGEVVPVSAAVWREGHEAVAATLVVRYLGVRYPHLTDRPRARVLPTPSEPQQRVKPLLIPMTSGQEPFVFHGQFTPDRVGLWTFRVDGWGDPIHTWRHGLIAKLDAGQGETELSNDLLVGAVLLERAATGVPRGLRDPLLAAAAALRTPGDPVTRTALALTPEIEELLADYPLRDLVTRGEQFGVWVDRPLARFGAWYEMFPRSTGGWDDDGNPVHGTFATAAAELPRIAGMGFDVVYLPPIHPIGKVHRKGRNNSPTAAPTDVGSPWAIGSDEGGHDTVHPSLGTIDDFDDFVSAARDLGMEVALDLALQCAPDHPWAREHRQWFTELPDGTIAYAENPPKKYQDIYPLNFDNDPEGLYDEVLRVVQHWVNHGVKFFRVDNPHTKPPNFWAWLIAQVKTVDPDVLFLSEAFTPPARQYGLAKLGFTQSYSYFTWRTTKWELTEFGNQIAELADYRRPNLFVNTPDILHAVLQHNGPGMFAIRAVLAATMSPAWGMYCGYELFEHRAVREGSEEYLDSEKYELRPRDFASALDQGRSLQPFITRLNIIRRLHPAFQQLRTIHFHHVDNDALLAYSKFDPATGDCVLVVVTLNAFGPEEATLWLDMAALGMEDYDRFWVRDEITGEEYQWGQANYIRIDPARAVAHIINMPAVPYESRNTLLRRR

## 5-amino-5-deoxy-D-glucose [Compound 1]
Yeast α-glucosidase
  Ki: 6.3 µM

## OC[C@H]1N[C@H](CO)[C@@H](O[C@H]2O[C@H](CO)[C@@H](O)[C@H](O)[C@H]2O)[C@@H]1O [Compound 9, 2,5-dideoxy-3-O-α-D-glucopyranosyl-2,5-imino-D-mannitol]
Mtb GlgE
  Ki: 237 ± 27 µM
